Two compounds from patent publication US12433903B2 (priority 2021, dated 2025) can be followed below.

Common to all, as to format: in vitro ADME
The subject of data set [1] is cryopreserved hepatocytes. As to the kind of experiment: Hepatocyte stability and metabolite profiling, human. As to conditions: human hepatocyte samples, 40 and 60 minute. On the procedure:
(§1) The objective of this study was to investigate the stability of the test compound, CBG, in human, rat, dog, mouse, monkey and minipig cryopreserved hepatocytes. Follow-on metabolite profiling was performed.
(§2) CBG was incubated up to 2 hr with cryopreserved hepatocytes. Cryopreserved hepatocytes in suspension were added to test compound in supplemented media following pre-incubation to initiate the reaction and the reactions were stopped by organic solvent at the appropriate time points. The termination plates were centrifuged and sample supernatants were analysed using Cyprotex generic LC MS/MS conditions to generate intrinsic clearance values for CBG. Two control compounds for each species were included in the assay and if the values for these compounds were not within the specified limits the results were rejected and the experiment repeated.
(§3) Following the hepatocyte stability assay the samples were 59 tilized for metabolite profiling using suitable high-resolution LC-MS/MS conditions. The 40 and 60 minute human samples, 20 and 120 minute rat samples, 10 and 20 minute dog and monkey samples, 20 and 60 minute mouse samples, and 40 and 120 minute minipig samples were compared against the 0 minute control sample to establish which and how many metabolites were formed. […]
(§4) The areas and percentages reported for the parent and metabolites were calculated using the XIC data. […]

In data set [2] the test system is cryopreserved hepatocytes. As to the kind of experiment: Hepatocyte stability and metabolite profiling, rat. To be noted: rat hepatocyte samples, 20 and 120 minute. On the procedure: as §1, §2, §3, §4
The subject of data set [3] is cryopreserved hepatocytes. As to the kind of experiment: Hepatocyte stability and metabolite profiling, minipig. As to conditions: minipig hepatocyte samples, 40 and 120 minute. On the procedure: as §1, §2, §3, §4
A further data set has as its target T1, rUGT2B7 (Homo sapiens, UniProt P16662).
T1 sequence (P16662 24-529): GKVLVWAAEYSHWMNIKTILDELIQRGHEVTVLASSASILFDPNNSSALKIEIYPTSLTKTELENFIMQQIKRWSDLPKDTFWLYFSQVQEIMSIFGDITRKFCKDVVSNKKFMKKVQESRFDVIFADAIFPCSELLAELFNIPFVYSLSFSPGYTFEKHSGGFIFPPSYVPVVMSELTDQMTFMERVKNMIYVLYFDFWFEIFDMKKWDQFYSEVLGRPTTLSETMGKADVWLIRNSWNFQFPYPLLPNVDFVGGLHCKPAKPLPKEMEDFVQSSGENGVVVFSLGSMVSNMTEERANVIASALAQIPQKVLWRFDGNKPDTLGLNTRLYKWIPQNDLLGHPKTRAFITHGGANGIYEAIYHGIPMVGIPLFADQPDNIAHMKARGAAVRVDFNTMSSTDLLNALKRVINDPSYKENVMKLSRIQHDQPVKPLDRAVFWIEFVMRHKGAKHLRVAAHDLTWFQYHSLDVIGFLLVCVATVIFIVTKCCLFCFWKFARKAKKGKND
As to the kind of experiment: Inhibition of CBG glucuronidation by Compound 1, rUGT2B7. On the procedure:
The purpose of this experiment was to determine if Compound 1 can inhibit the glucuronidation of CBG, as both are substrates for the two major isoforms responsible for CBG glucuronidation.
The ability of Compound 1 to inhibit the metabolism of CBG by UGT1A9 and UGT2B7 enzymes was investigated to ascertain the IC50 values for direct inhibition. The incubation conditions (substrate concentration, incubation time and protein concentration) were determined in Part 2 of the protocol such that CBG metabolism remains near initial rate conditions (e.g., 20-30% substrate loss).
Preliminary experiments were conducted in Part I of the protocol, first to establish the HPLC/MS/MS bioanalytical methods for CBG and CBG glucuronide. […] The second set of preliminary experiments (Part 2), as mentioned, were conducted to optimize the incubation conditions as described above. Incubations (at 37° C.) contained Tris-HCl buffer (100 mM, pH 7.7), MgCl2 (10 mM), EDTA (1 mM, pH 7.4) and UDP-glucuronic acid (UDPGA, 10 mM). CBG was added to each incubation in DMSO such that the final percent of DMSO was 1% v/v, or less. Reactions were terminated by the addition of an equal volume of stop reagent, acetonitrile containing an internal standard. The samples were centrifuged (e.g., 920 RCF for 10 minutes at 10° C.), and the supernatant fractions were analyzed by LC-MS/MS to determine the amount of CBG remaining and formation of one metabolite (CBG glucuronide).
To examine its ability to act as a direct inhibitor of the above listed enzymes, Compound 1 was be added to recombinant human UGT enzyme together with CBG. Reactions were initiated with UDPGA and were carried out in duplicate. For all assays, reactions were terminated by the addition of acetonitrile with or without 2% v/v formic acid, including the internal standard.
Authentic metabolite reference standards were used for quantitation of the probe substrate metabolites and as internal standards. Based on the information obtained in the Part 2 experiments, the following table summarizes the experiments performed, assessing the inhibitory effects of Compound 1 was conducted as follows:
The amounts of CBG present at the end of the incubation periods was determined. For inhibition to have occurred, the amounts of CBG present at the end of the incubation period needed to increase, and the amounts of glucuronide formed needed to decrease.

Setting [4] is: 10 μM CBG + 0.01 μM Compound 1, 5 min.
The mark [5] stands for this setting: 10 μM CBG + 0.03 μM Compound 1, 5 min.
[6] abbreviates: 10 μM CBG + 0.1 μM Compound 1, 5 min.
[7] abbreviates: 10 μM CBG + 0.3 μM Compound 1, 5 min.
The mark [8] stands for this setting: 10 μM CBG + 1 μM Compound 1, 5 min.
The mark [9] stands for this setting: 10 μM CBG + 3 μM Compound 1, 5 min.
The mark [10] stands for this setting: 10 μM CBG + 10 μM Compound 1, 5 min.

Each structure is given as a SMILES string.

Take `CCCCCc1cc(O)c(C/C=C(\C)CCC=C(C)C)c(O)c1` [CBG, cannabigerol]: the “metabolites observed (number)” value is “Seven” in data set [1], “eight” in data set [2] and “four” in data set [3].
In the case of `CCCCCc1cc(O)c(C/C=C(\C)CCC=C(C)C)c(OC)c1` [Compound 1, (E)-2-(3,7-dimethylocta-2,6-dien-1-yl)-3-methoxy-5-pentylphenol], the “CBG detected (CBG loss)” value at rUGT2B7 (setting [4]) stood at 1370 pmol; at rUGT2B7 (setting [5]), 1460 pmol; at rUGT2B7 (setting [6]), 1410 pmol; on rUGT2B7 (setting [7]), 1450 pmol; at rUGT2B7 (setting [8]), 1460 pmol; at rUGT2B7 (setting [9]), 1440 pmol. At rUGT2B7 (setting [10]), the “CBG detected (CBG loss)” value came out at 1470 pmol. Also, the “CBG detected, Percent of control” value is listed as 103 at rUGT2B7 (setting [4]); 109 on rUGT2B7 (setting [5]); 106 at rUGT2B7 (setting [6]); 109 on rUGT2B7 (setting [7]); 109 on rUGT2B7 (setting [8]); 108 at rUGT2B7 (setting [9]). Further, the “CBG detected, Percent of control” value at rUGT2B7 (setting [10]) came to 111. Moreover, the CBG glucuronide formed on rUGT2B7 (setting [4]) is 260000 area ratio. Further, the “CBG glucuronide formed, Percent of control” value at rUGT2B7 (setting [4]) is recorded as 104; on rUGT2B7 (setting [5]), 101; on rUGT2B7 (setting [6]), 103; at rUGT2B7 (setting [7]) it was 105; on rUGT2B7 (setting [8]), 102; at rUGT2B7 (setting [9]), 101. Further, the “CBG glucuronide formed, Percent of control” value at rUGT2B7 (setting [10]) was determined as 96.0. Also, the “metabolism of CBG in the presence of Compound 1 (in words)” value on rUGT2B7 (0.01-10 μM Compound 1, CBG disappearance or glucuronide formation) is reported as “essentially unchanged”.
